Assay results taken from patent publication US20040192777A1, “Novel anticancer diterpene compounds, process and uses thereof” (COUNCIL OF SCIENTIFIC AND INDUSTRIAL, priority 2003, published 2004).

Assays:
Assay type in all cases: cell-based
[1] = test system: human lung cancer cell line HOP-62; experiment: In vitro cytotoxicity (SRB) against HOP-62; settings: HOP-62 Lung; for Growth inhibition, %: 48 h
Method: (§1) The human cancer cell lines were obtained either from National center for cell science, Pune, India or National Cancer Institute, Frederick, MD, U.S.A. Cells were grown in tissue culture flasks in complete growth medium (RPMI-1640 medium with 2 mM glutamine, 100 μg/ml streptomycin, pH 7.4, sterilized by filtration and supplemented with 10% sterilized fetal calf serum and 100 units/ml penicillin before use) at 37° C. in an atmosphere of 5% CO2 and 90% relative humidity in a carbon dioxide incubator. The cells at subconfluent stage were harvested from the flask by treatment with trypsin (0.05% trypsin in PBS containing 0.02% EDTA) and suspended in complete growth medium. Cells with cell viability of more than 97% by trypan blue exclusion technique were used for determination of cytotoxicity.
(§2) Compound 1 was dissolved in DMSO (dimethyl sulphoxide) to obtain a stock solution of 20 mg/ml. The stock solution was serially diluted with complete growth medium containing 50 μg/ml of gentamycin to obtain three working test solutions of 200, 60 and 20 μg/ml.
(§3) The suspension of human cancer cell lines of required cell density in complete growth medium was prepared and cell suspension of each cell line was placed in 96-well tissue culture plate (100 μl per well) for control, Compound 1 and positive control(s). The blank wells for each cell line and concentration of test material were also included that contained equivalent amount of complete growth medium only. The plates were incubated at 37° C. in an atmosphere of 5% CO2 and 90% relative humidity in a carbon dioxide incubator. The experiment was carried out in triplicate.
(§4) After 24-hours of incubation, the working solutions of Compound 1 of different concentrations (100 μl) were added in the experimental wells and blanks whereas positive controls of required concentrations (100 μl) were added into wells for positive controls. The equivalent amount of complete growth medium was added to control set.
(§5) The plates were further incubated for 48-hours (at 37° C. in an atmosphere of 5% CO2 and 90% relative humidity in a carbon dioxide incubator) after addition of test material etc. and then the cell growth was stopped by gently layering of 50 μl of TCA (50% trichloroacetic acid) on top of the medium in all the wells. The plates were incubated at 4° C. for one hour to fix the cells attached to the bottom of the wells. Liquids of all the wells were gently pipetted out and discarded. The plates were washed five times with distilled water to remove TCA, growth medium, low molecular weight metabolites, serum proteins etc. Plates were air dried.
(§6) Cell growth was measured by staining with sulforhodamine B dye (SRB). The SRB solution (100 μl of 0.4% SRB in 1% acetic acid) was added to each well and the plates were incubated at room temperature for 30 minutes. The unbound SRB was quickly removed by washing the wells five times with 1% acetic acid and plates were air dried. Tris-buffer (100 μl of 0.01M, pH 10.4) was added to all the wells and plates were gently stirred for 5 minutes on a mechanical stirrer. The optical density was recorded on ELISA reader at 540 nm.
(§7) The cell growth in presence of test material was determined by subtracting mean OD value of respective blank from the mean OD value of experimental set. Like wise, cell growth in absence of test material (control set) and in presence of positive control was also determined. The per cent cell growth in presence of test material was determined considering the cell growth in absence of test material as 100% and in turn per cent inhibition was calculated.
(§8) The human cancer cell lines were grown, harvested and cytotoxicity was determined exactly as mentioned in Example 3 except that the test material used was Compound 2 that was dissolved in DMSO and three working test solutions were prepared of the same concentrations as in Example 3.

[2] = test system: human ovary cancer cells (OVCAR-5); experiment: In vitro cytotoxicity (SRB) against OVCAR-5; settings: OVCAR-5 Ovary; for Growth inhibition, %: 48 h
Method: as §1, §2, §3, §4, §5, §6, §7, §8

[3] = test system: human lung cancer cells (A-549); experiment: In vitro cytotoxicity (SRB) against A-549; settings: A-549 Lung; for Growth inhibition, %: 48 h
Method: as §1, §2, §3, §4, §5, §6, §7, §8

[4] = test system: human liver cancer cells (Hep-2); experiment: In vitro cytotoxicity (SRB) against Hep-2; settings: Hep-2 Liver
Method: The human cancer cell lines were obtained either from National center for cell science, Pune, India or National Cancer Institute, Frederick, MD, U.S.A. […] Cells with cell viability of more than 97% by trypan blue exclusion technique were used for determination of cytotoxicity. Compound 1 was dissolved in DMSO (dimethyl sulphoxide) to obtain a stock solution of 20 mg/ml. […] The blank wells for each cell line and concentration of test material were also included that contained equivalent amount of complete growth medium only. The plates were incubated at 37° C. in an atmosphere of 5% CO2 and 90% relative humidity in a carbon dioxide incubator. The experiment was carried out in triplicate. […] The equivalent amount of complete growth medium was added to control set. […] The plates were incubated at 4° C. for one hour to fix the cells attached to the bottom of the wells. Liquids of all the wells were gently pipetted out and discarded. The plates were washed five times with distilled water to remove TCA, growth medium, low molecular weight metabolites, serum proteins etc. Plates were air dried. Cell growth was measured by staining with sulforhodamine B dye (SRB). […] The optical density was recorded on ELISA reader at 540 nm. The cell growth in presence of test material was determined by subtracting mean OD value of respective blank from the mean OD value of experimental set. Like wise, cell growth in absence of test material (control set) and in presence of positive control was also determined. […] The human cancer cell lines were grown, harvested and cytotoxicity was determined exactly as mentioned in Example 3 except that the test material used was Compound 2 that was dissolved in DMSO and three working test solutions were prepared of the same concentrations as in Example 3.

[5] = test system: human prostate cancer cell line PC-3; experiment: In vitro cytotoxicity (SRB) against PC-3; settings: PC-3 Prostate
Method: as §1, §2, §3, §4, §5, §6, §7, §8

[6] = test system: human cancer cell lines; experiment: In vitro cytotoxicity (SRB), span over the cell line panel; settings: at 100 μg/ml, all human cancer cell lines studied except HOP-62
Method: as §1, with “cytotoxicity. […]” for “cytotoxicity.”
Cell growth was measured by staining with sulforhodamine B dye (SRB). […] The optical density was recorded on ELISA reader at 540 nm.
as §7, with “calculated. […]” for “calculated.”

[7] = test system: human CNS cancer cells (SK-N-MC); experiment: In vitro cytotoxicity (SRB) against SK-N-MC; settings: 48 h
Method: as §1, §2, §3, §4, §5, §6, §7, §8

[8] = test system: human cervix cancer cell line (SiHa); experiment: In vitro cytotoxicity (SRB) against SiHa
Method: as §1, §2, §3, §4, §5, §6, §7, §8

[9] = test system: human colon cancer cells (HT-29); experiment: In vitro cytotoxicity (SRB) against HT-29; settings: HT-29 Colon
Method: as §1, §2, §3, §4, §5, §6, §7, §8

[10] = Homo sapiens, 1 × 10^−4M, positive control, read-out: Growth inhibition, %
[11] = Homo sapiens, 1 × 10^−5M, positive control, read-out: Growth inhibition, %

Row | Structure (SMILES) | Growth inhibition, % ([1]; 10 μg/ml) | Growth inhibition, % ([1]; 30 μg/ml) | Growth inhibition, % ([1]; 100 μg/ml) | inhibition of cell growth, span over the cell lines [6] | Growth inhibition, % ([7]; 10 μg/ml) | Growth inhibition, % ([7]; 30 μg/ml) | Growth inhibition, % ([7]; 100 μg/ml) | Growth inhibition, % ([4]; 10 μg/ml, 48 h) | Growth inhibition, % ([4]; 30 μg/ml, 48 h) | Growth inhibition, % ([4]; 100 μg/ml, 48 h) | Growth inhibition, % ([2]; 10 μg/ml) | Growth inhibition, % ([2]; 30 μg/ml) | Growth inhibition, % ([2]; 100 μg/ml) | Growth inhibition, % ([5]; 10 μg/ml, 48 h) | Growth inhibition, % ([5]; 30 μg/ml, 48 h) | Growth inhibition, % ([5]; 100 μg/ml, 48 h) | Growth inhibition, % ([3]; 10 μg/ml) | Growth inhibition, % ([3]; 30 μg/ml) | Growth inhibition, % ([3]; 100 μg/ml) | Growth inhibition, % ([8]; 10 μg/ml, 48 h) | further results
1 | CC/C(=C(\c1ccccc1)c1ccc(OCCN(C)C)cc1)c1ccccc1 [Tamoxifen, reference compound] |  |  |  |  |  |  |  |  |  |  |  |  |  |  |  |  |  |  |  |  | inhibition at 100 µM [1, 10]: 20%; inhibition at 10 µM [1, 11]: 2%; inhibition at 100 µM [2, 10]: 100%; inhibition at 10 µM [2, 11]: 0%; inhibition at 100 µM ([3]; Homo sapiens, A549, 1 × 10^−4M, positive control, read-out: Growth inhibition, %): 98%; inhibition at 10 µM ([3]; Homo sapiens, A549, 1 × 10^−5M, positive control, read-out: Growth inhibition, %): 19%
2 | CO[C@@]12[C@H](COC(N)=O)C3=C(C(=O)C(C)=C(N)C3=O)N1C[C@@H]1N[C@@H]12 [Mytomycin C, reference compound] |  |  |  |  |  |  |  |  |  |  |  |  |  |  |  |  |  |  |  |  | Growth inhibition, % ([4]; 1 × 10^−5M, positive control): 87%; Growth inhibition, % ([5]; 1 × 10^−5M, positive control): 78%
3 | C=C[C@]1(C)C=C2CCC3[C@@](C)(CCC[C@@]3(C)C(=O)O)C2CC1 (stereo partly drawn) [Compound 1, ent-pimmarane 8(14),15-diene-19 oic acid] | 00% | 00% | 03% | 41-97% | 00% | 75% | 88% | 20% | 68% | 80% | 00% | 66% | 76% | 05% | 78% | 97% | 13% | 72% | 94% | 00% | Growth inhibition, % ([8]; 30 μg/ml, 48 h): 14%; Growth inhibition, % ([8]; 100 μg/ml, 48 h): 41%; Growth inhibition, % ([9]; 10 μg/ml, 48 h): 02%; Growth inhibition, % ([9]; 30 μg/ml, 48 h): 70%; Growth inhibition, % ([9]; 100 μg/ml, 48 h): 94%
4 | C=CC1(C)CC=C2C(=CCC3C(C)(C(=O)O)CCCC23C)C1 (stereo not drawn) [Compound 2, ent-pimmarane 7(8),9(11),15 triene-19 oic acid] | 00% | 00% | 00% | 38-97% | 22% | 85% | 92% | 18% | 70% | 91% | 12% | 67% | 96% | 00% | 83% | 94% | 09% | 71% | 97% | 00% | Growth inhibition, % ([8]; 30 μg/ml, 48 h): 8%; Growth inhibition, % ([8]; 100 μg/ml, 48 h): 38%; Growth inhibition, % ([9]; 10 μg/ml, 48 h): 00%; Growth inhibition, % ([9]; 30 μg/ml, 48 h): 70%; Growth inhibition, % ([9]; 100 μg/ml, 48 h): 95%
5 | O=c1[nH]cc(F)c(=O)[nH]1 [Compound 5FU, reference compound] |  |  |  |  |  |  |  |  |  |  |  |  |  |  |  |  |  |  |  |  | Growth inhibition, % ([8]; 1 × 10^−4M, positive control): 17%; Growth inhibition, % ([9]; 1 × 10^−4M, positive control): 43%
